{
  "source": "patent US20230146455A1",
  "about": "“TREATMENT OF INFLAMMATORY DISEASES WITH PEPTIDES AND PHARMACEUTICAL COMPOSITIONS” (Yuyu Pharma, Inc., priority 2020, published 2023)",
  "system": "cytokine and chemokine release in human peripheral blood mononuclear cells (hPBMCs)",
  "assay": "Luminex multiplex, 30 cytokines and chemokines, LPS stimulated hPBMCs (Example 9, Study 2), whole panel",
  "type": "cell-based",
  "conditions": "for LPS-induced pro-inflammatory cytokines and chemokines, whole panel (in words): LPS 5 ug/mL 24 hrs, 100 uM to 1 nM",
  "procedure": "Human PBMCs frozen purchased from ATCC in a cryo-preservative were thawed, washed with Hank's Balanced Salt Solution containing 10% fetal bovine serum, and seeded onto a 24-well plate at a density of 0.5×10^6 cells/well with culture RPMI media containing 10% fetal bovine serum in growth media in a 24 well plate for 24 hrs and maintained at 37° C. in an atmosphere of 95% air and 5% CO2. At the end of 24 hr culture, cells are pretreated with YY-101, YDE-011 and YDE-043 or reference compound, Xiidra® at various concentrations for 2 h before stimulation. An equal volume of 0.5% DMSO is used as a vehicle control. Then, the cells are treated with LPS. Supernatants from treated cells are harvested at 24 hr post-LPS treatment and placed in 96 well for Luminex cytokine & chemokine profiling using a Luminex 200 multiplex assay.\nHuman PBMCs frozen in a cryopreserve was thawed, washed with Hank's Balanced Salt Solution containing 10% Fetal bovine serum, and seeded onto a 24-well plate at a density of 0.5×10^6 cells/well with culture RPMI media containing 10% Fetal bovine serum in growth media in a 24 well plate for 24 hrs and maintained at 37° C. in an atmosphere of 95% air and 5% CO2.\nTreatment Human PBMCs were pretreated with YY-101, YDE-011 and YDE-043 or reference compound; Xiidra® at various concentration (ranging from 1 nM to 100 uM) for 2 h before stimulation. An equal volume of 0.5% DMSO was used as a vehicle control. Then, the cells were treated with LPS at 5 ug/ml. The supernatants from treated cells were harvested at 24 h and placed in a 96 well for Luminex cytokine & chemokine profiling using a Luminex 200 multiplex assay (Luminex; R&D system, USA).\nThe main study arm with triplicate wells per group in a 24-well plate: • 1. Blank • 2. PBMC: 0.5% DMSO • 3. PBMC+LPS (5 ug/ml) • 4. PBMC+YY-101 100 uM • 5. PBMC+YY-101 10 uM • 6. PBMC+YY-101 1 uM • 7. PBMC+YY-101 0.1 uM • 8. PBMC+YY-101 0.01 uM • 9. PBMC+LPS (5 ug/ml)+Xiidra®100 uM • 10. PBMC+LPS (5 ug/ml)+Xiidra® 10 uM • 11. PBMC+LPS (5 ug/ml)+Xiidra® 1 uM • 12. PBMC+LPS (5 ug/ml)+Xiidra®0.1 uM • 13. PBMC+LPS (5 ug/ml)+Xiidra®0.01 uM • 14. PBMC+LPS (5 ug/ml)+Xiidra®0.001 uM • 15. PBMC+LPS (5 ug/ml)+YY-101 100 uM • 16. PBMC+LPS (5 ug/ml)+YY-101 10 uM • 17. PBMC+LPS (5 ug/ml)+YY-101 1 uM • 18. PBMC+LPS (5 ug/ml)+YY-101 0.1 uM • 19. PBMC+LPS (5 ug/ml)+YY-101 0.01 uM • 20. PBMC+LPS (5 ug/ml)+YY-101 0.001 uM • 21. PBMC+LPS (5 ug/ml)+YDE-011 100 uM • 22. PBMC+LPS (5 ug/ml)+YDE-011 10 uM • 23. PBMC+LPS (5 ug/ml)+YDE-011 1 uM • 24. PBMC+LPS (5 ug/ml)+YDE-011 0.1 uM • 25. PBMC+LPS (5 ug/ml)+YDE-011 0.01 uM • 26. PBMC+LPS (5 ug/ml)+YDE-011 0.001 uM • 27. PBMC+LPS (5 ug/ml)+YDE-043 100 uM • 28. PBMC+LPS (5 ug/ml)+YDE-043 10 uM • 29. PBMC+LPS (5 ug/ml)+YDE-043 1 uM • 30. PBMC+LPS (5 ug/ml)+YDE-043 0.1 uM • 31. PBMC+LPS (5 ug/ml)+YDE-043 0.01 uM • 32. PBMC+LPS (5 ug/ml)+YDE-043 0.001 uM\nMultiplex assay was used to measure 30 cytokines and chemokines. The 1:2, 1:10 and 1:200 diluted cell supernatant and serial dilution of the standard were dispensed into a 96 well plate at 50 ul/well. Then, the pre-mixed cocktail of antibody-coated magnetic beads was dispensed at 50 ul/well and incubated at room temperature for 2 h in a horizontal orbital microplate shaker at 800±500 rpm. The beads were washed using a magnetic device to prevent loss. […] The data was calculated with a standard five-parameter logistic nonlinear regression analysis of the data (xPonent software 4.2, USA). […]",
  "note": "Entries after “also recorded” stand apart in the source; their conditions may differ. Where a SMILES comes first, the peptide text is derived from it. [ ]: non-standard residue; d: D form. Hyp = O=C(O)[C@@H]1C[C@@H](O)CN1",
  "data": [
    {"compound": "CC(C)C[C@H](NC(=O)CNC(=O)[C@H](CC(C)C)NC(=O)[C@H](CCC(N)=O)NC(=O)CNC(=O)[C@@H]1C[C@@H](O)CN1)C(=O)N[C@@H](C)C(=O)NCC(=O)N1CCC[C@H]1C(=O)N[C@@H](CCCCN)C(=O)O", "note": "[YDE-011] (H-[Hyp]GQLGLAGPK-OH)", "values": [
      {"measurement": "LPS-induced pro-inflammatory cytokines and chemokines, whole panel (in words)", "value": "effectively and potently reduced; also recorded: more potent and effective immunomodulators"}
    ]},
    {"compound": "CC(C)C[C@H](NC(=O)[C@H](CCC(N)=O)NC(=O)CNC(=O)[C@@H]1C[C@@H](O)CN1)C(=O)NCC(=O)O", "note": "[YDE-043] (H-[Hyp]GQLG-OH; N-terminus and C-terminus assumed)", "values": [
      {"measurement": "LPS-induced pro-inflammatory cytokines and chemokines, whole panel (in words)", "value": "effectively and potently reduced"},
      {"measurement": "LPS-induced pro-inflammatory cytokines and chemokines, whole panel (in words)", "setting": "listed as YDE043", "value": "more potent and effective immunomodulators"}
    ]},
    {"compound": "CC(C)C[C@H](NC(=O)CNC(=O)[C@H](CC(=O)O)NC(=O)[C@H](CCC(N)=O)NC(=O)CNC(=O)[C@@H]1C[C@@H](O)CN1)C(=O)N[C@@H](C)C(=O)NCC(=O)N1CCC[C@H]1C(=O)N[C@@H](CCCCN)C(=O)O", "note": "[YY-101] (H-[Hyp]GQDGLAGPK-OH; N-terminus and C-terminus assumed)", "values": [
      {"measurement": "LPS-induced pro-inflammatory cytokines and chemokines, whole panel (in words)", "value": "effectively and potently reduced"},
      {"measurement": "basal levels of cytokine/chemokine production (in words)", "setting": "no LPS, up to 100 μM", "value": "didn't affect the basal levels of most of cytokine/chemokine production; also recorded: didn't affect the basal levels of cytokine production except TIMP-1"}
    ]}
  ]
}
